The numbers were not newly measured in US20210388441A1, “PREDICTING CHRONIC ALLOGRAFT INJURY THROUGH ISCHEMIA-INDUCED DNA METHYLATION” (VIB VZW, priority 2017, published 2021), which cites them from elsewhere.

Structures are written as SMILES.

This data set concerns macrophage infiltration in kidneys. Conditions: through a decrease of macrophage infiltration in for instance kidneys.

In the case of `CC(=O)C(C)CCC(=O)O` (stereo not shown) [ERG240], the inflammation entry is listed as “reduced inflammation”.
